Entries after “also recorded” stand apart in the source; their conditions may differ.
Assays:
[1] = tested on: H9/HIV-IIIB in HT46c cells; assay: Anti-HIV assay in vitro: inhibition of HIV replication, focal immunoassay (reduction in foci); assay type: cell-based, HIV-1; settings: for anti-HIV activity: in words, tested at 0.01, 0.1, 1.0, 5.0 and 20 μM; for reduction in foci at 5 μM: GIL compared with BDGA
Protocol: 1,1'-bisdeoxygossypol (BDG), 1,1'-bisdeoxygossylic acid (BDGA), 8-deoxyhemigossypol (DHG) and 8-deoxyhemigossylic acid (DHGA) were synthesized and tested for their ability to inhibit the replication of HIV in vitro. The EC50 for BDGA was <1 μM and its threshold cytotoxicity was approximately 20 μM. […] Like BDGA, the Ec50 for GIL was <1 μM. […] BDG, on the other hand, was ineffective at 1 μM and destroyed >80% of the cell monolayer at 5 μM.
(§1) The anti-HIV assay used was based on a published procedure (J.Virol. 62:3779-3788, 1988) using HT46c (HeLaT4+) cells as host cells for the H9/HIV-III8 strain of the HIV-1 virus. The cells were seeded into 6-well plates, 5×10^4 cells/well, in RPMI 1640 with 10% FBS and allowed to attach overnight. After treatment of the wells with DEAE-dextran, stock virus was added at a concentration that produces 100 -200 foci/well on day 3 in positive control wells. Test compounds were added, and plates incubated for 3 days at 37° C., 5% CO2. Monolayers were fixed with methanol and wells analyzed with a focal immunoassay (FIA). The primary reagent used in the FIA was a polyclonal antibody preparation of sera from AIDS patients. The secondary reagent was a goat anti-human IgG antibody tagged with horseradish peroxidase. The substrate was 3-amino-9-ethylcarbazole in sodium acetate buffer with hydrogen peroxide. Each compound was tested at concentrations of 0.01, 0.1, 1.0, 5.0 and 20 μM. GIL was tested as a standard for comparison.

[2] = tested on: HT46c (HeLaT4+) cells; assay: Cytotoxicity in the anti-HIV assay: detectable changes in cell morphology or loss of monolayer adherence to the culture plate; assay type: cell-based; settings: for cytotoxicity: in words
Protocol: (§2) 1,1'-bisdeoxygossypol (BDG), 1,1'-bisdeoxygossylic acid (BDGA), 8-deoxyhemigossypol (DHG) and 8-deoxyhemigossylic acid (DHGA) were synthesized and tested for their ability to inhibit the replication of HIV in vitro.
as §1, with “After” for “The anti-HIV assay used was based on a published procedure (J.Virol. 62:3779-3788, 1988) using HT46c (HeLaT4+) cells as host cells for the H9/HIV-III8 strain of the HIV-1 virus. The cells were seeded into 6-well plates, 5×10^4 cells/well, in RPMI 1640 with 10% FBS and allowed to attach overnight. After”

[3] = as above; assay type: cell-based; settings: human, ht46c cells; below threshold = no detectable changes in cell morphology or loss of monolayer adherence
Protocol: as §2
as §1, with “After” for “The anti-HIV assay used was based on a published procedure (J.Virol. 62:3779-3788, 1988) using HT46c (HeLaT4+) cells as host cells for the H9/HIV-III8 strain of the HIV-1 virus. The cells were seeded into 6-well plates, 5×10^4 cells/well, in RPMI 1640 with 10% FBS and allowed to attach overnight. After”

[4] = previously shown in similar assays (Pharmacol.Res.); cited from earlier work
[5] = tested on: HIV; settings: previously found, in vitro; cited from earlier work

With `Cc1cc2c(C(C)C)c(O)c(O)c(C=O)c2cc1-c1cc2c(C=O)c(O)c(O)c(C(C)C)c2cc1C` [BDG, 6,6',7,7'-Tetrahydroxy-3,3'-dimethyl-5,5'-bis(1-methylethyl)[2,2'-binaphthalene]-8,8'-dicarboxaldehyde] the “anti-HIV activity at 1 μM” value ([1]; 1 μM) was “ineffective”, the anti-HIV activity [1] was “less effective against HIV” and the “destruction of the cell monolayer at 5 μM” value ([2]; 5 μM) was greater than 80%. The cytotoxicity [2] was “much more cytotoxic than BDGA”.
With `Cc1cc2c(C(C)C)c(O)c(O)c(C(=O)O)c2cc1-c1cc2c(C(=O)O)c(O)c(O)c(C(C)C)c2cc1C` [BDGA, 6,6',7,7'-Tetrahydroxy-3,3'-dimethyl-5,5'-bis(1-methylethyl)[2,2'-binaphthalene]-8,8'-dicarboxylic Acid] the “reduction in foci at 5 μM” value [1] was “same reduction in foci”, the anti-HIV activity [1] was “approximately as effective as GIL” and the “toxicity at 5.0 μM” value [2] was “No toxicity was noted”. For the same compound, the “monolayer destruction at 20 μM” value ([2]; 20 μM) was “Some signs of monolayer destruction”.
For `Cc1ccc2c(C=O)c(O)c(O)c(C(C)C)c2c1` [DHG, 2,3-dihydroxy-6-methyl-4-(1-methylethyl)-1-naphthaldehyde], the anti-HIV activity [1] was “some anti-HIV activity; also recorded: less active”, the cytotoxicity [2] was “more cytotoxic” and the MCC [3] was 54 µM.
In the case of `Cc1ccc2c(C(=O)O)c(O)c(O)c(C(C)C)c2c1` [DHGA, 2,3-dihydroxy-6-methyl-4-(1-methylethyl)-1-naphthoic Acid], the “effect on viral replication at 20 μM” value ([1]; even at 20 μM) is reported as “no observable effect on viral replication”, the anti-HIV activity [1] is reported as “ineffective against HIV” and the “effect on cell morphology at 20 μM” value ([2]; even at 20 μM) is reported as “no observable effect on viral replication or cell morphology”. For the same compound, the cytotoxicity [2] was “very low cytotoxicity”.
For `Cc1cc2c(C(C)C)c(O)c(O)c3c2c(c1-c1c(C)cc2c(C(C)C)c(O)c(O)c4c2c1OC4=N)OC3=N` [GIL, gossylic iminolactone], the “cytotoxicity relative to gossypol” value [4] is listed as “less cytotoxic than gossypol”, the “reduction in foci at 5 μM” value [1] is listed as “same reduction in foci” and the “anti-HIV activity relative to gossypol” value [5] is listed as “more active; also recorded: more effective than gossypol”. For the same compound, the “toxicity at 5.0 μM” value [2] was “No toxicity was noted”.

— patent US5936120A, “Deoxygossylic compounds” (University of New Mexico, priority 1997, dated 1999)
